Test results from US10039718B2, “Use of solid carrier particles to improve the processability of a pharmaceutical agent” (Gilead Sciences, Inc., priority 2008, dated 2018).

Test: Water uptake (hygroscopicity) by dynamic vapor sorption (DVS)
Type: physicochemical
Details: 75% RH, 25° C., after 1 hour drying under dry nitrogen
Protocol: The water uptake for AEROPERL® 300 (fumed silica), the Compound, and a sample of AEROPERL® 300 (fumed silica) loaded with 50.0% (w/w) of the Compound was measured as described below.
The compound of formula (I) was dissolved in ethanol and this solution was poured onto a sample of fumed silica that was equal in weight to the amount of the compound of formula (I). The resulting mixture was thoroughly mixed and the solvent was evaporated to provide the compound/AEROPERL® 300 (fumed silica) material used for the uptake study below.
The hygroscopicity of the samples was measured by dynamic vapor sorption (DVS) on a DVS Advantage-1 instrument from Surface Measurement Systems (SMS, Allentown, Pa.). In a DVS experiment the mass increase/decrease of a sample is measured at various relative humidity (RH) levels at a constant temperature. The instrument consists of a microbalance with one pan containing the sample (typically about 5-10 mg of sample) and an empty pan as a reference, and a water vapor generator to produce the desired relative humidity level. All experiments were run at a constant temperature of 25° C. For all experiments the samples were initially dried under a continuous flow of dry nitrogen for 1 hour to establish the dry mass m0. The relative humidity was then increased to 75% and the increase in mass was recorded as the samples take up water.

water adsorbed (increase in mass at equilibrium): 4.8 % (by weight)
SMILES: CC(C)c1nc(CN(C)C(=O)NC(CCN2CCOCC2)C(=O)NC(CCC(Cc2ccccc2)NC(=O)OCc2cncs2)Cc2ccccc2)cs1 (stereo not shown) [the Compound]
